Where two headings read alike, the source gives them in different places. Numbered stars: 1 amine (or outer) side, 2 acyl side, 3 side chain; on linkers, the order of the positions; unused ones are H or OH. Bridge positions count the residues as written; N and C are the ends. Side chains are listed from the residue outwards. Peptide text beside a SMILES is read from it. * marks the point of attachment. C20 diacid = O=C(O)CCCCCCCCCCCCCCCCCCC(=O)*; γGlu = O=C(O)[C@H](CCC(=O)[*:2])N[*:1]
Experiments:
[1] = molecular target: T1, human calcitonin receptor (Homo sapiens, UniProt P30988); assay: Assay (VII) binding to the human calcitonin receptor (SPA, 125I-Calcitonin); settings: read-out: hCTR bind IC50;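 note: cell membranes coupled to SPA beads, competitive displacement read by scintillation counting, IC50 derived from a one-site competition fit as a measure of receptor affinity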
T1 construct: expressed in transfected cells
T1 sequence (P30988 25-474): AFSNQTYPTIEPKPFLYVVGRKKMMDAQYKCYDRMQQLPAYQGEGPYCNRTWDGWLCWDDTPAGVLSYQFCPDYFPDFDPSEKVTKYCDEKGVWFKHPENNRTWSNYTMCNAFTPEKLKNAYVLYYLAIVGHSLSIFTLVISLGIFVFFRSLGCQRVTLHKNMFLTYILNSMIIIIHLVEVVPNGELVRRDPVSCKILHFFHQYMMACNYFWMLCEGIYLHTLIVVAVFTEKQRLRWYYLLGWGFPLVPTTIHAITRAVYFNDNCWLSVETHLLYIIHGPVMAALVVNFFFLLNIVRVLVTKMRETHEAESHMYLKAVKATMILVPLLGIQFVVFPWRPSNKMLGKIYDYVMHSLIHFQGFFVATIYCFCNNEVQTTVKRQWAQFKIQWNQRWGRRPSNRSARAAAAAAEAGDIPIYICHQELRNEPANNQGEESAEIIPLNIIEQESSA

[2] = molecular target: T1, human calcitonin receptor; assay: Assay (II)a functional assay, human calcitonin receptor (CRE luciferase, BHK cells);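 note: luminescence from a CRE-driven luciferase reporter, read by single photon counting after cells were exposed to test samples for 3 h at 37 °C under 5% CO2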; type: cell-based; settings: read-out: hCTR funct. EC50
Protocol: Assay (II)—Functional Assays
Consequently, transcription is activated by promoters containing multiple copies of the cAMP response element (CRE).
The cell line was further transfected with RAMP-3, using standard methods.
After incubation overnight at 37° C. and 5% CO2, the growth medium was replaced by 50 μl/well assay medium (DMEM (without phenol red), Glutamax™, 10% FBS, and 10 mM Hepes, pH 7.4). Further, 50 μl/well of standard or sample in assay buffer were added. After 3 hours incubation at 37° C. and 5% CO2, the assay medium with standard or sample were removed and replaced by 100 μl/well PBS. Further, 100 μl/well LucLite™ was added. The plates were sealed and incubated at room temperature for 30 minutes. Finally, luminescence was measured on a TopCounter (Packard) in SPC (single photon counting) mode.

human amylin receptor = molecular target: T2, human amylin receptor (Homo sapiens, UniProt O60896+P30988); assay: Assay (V) binding to the human amylin receptor (SPA, 125I-rat amylin); settings: for IC50: read-out: hAmylin-R bind IC50; for Ratio hCT/hAmylin binding: human binding ratio, included for comparison
T2 construct: expressed in transfected cells
T2 sequence (P30988 25-474): T1 sequence (P30988 25-474)
T2 sequence (O60896 24-148 partner): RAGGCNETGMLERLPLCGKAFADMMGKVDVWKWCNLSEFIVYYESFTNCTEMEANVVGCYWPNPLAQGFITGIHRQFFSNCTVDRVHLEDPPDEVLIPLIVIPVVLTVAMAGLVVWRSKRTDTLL
Procedure, shortened: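 SPA competition binding on membranes from Amylin 3(a)/CRE-luc cells, 35 ng/μL membranes with 0.05 mg/well beads. Buffer 50 mM Hepes pH 7.4, 1 mM CaCl2, 5 mM MgCl2, 0.1% OA, 0.02% Tween20. IC50 from one-site competition fit as affinity measure.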

rat amylin receptor = molecular target: T3, rat amylin receptor (Rattus norvegicus, UniProt P32214+Q9JJ73); assay: Assay (VI) binding to the rat amylin receptor; settings: rCTR bind IC50 divided by rAmylin-R bind IC50
T3 construct: expressed in transfected cells; host or cells: BHK tk'ts 13 (transient, FuGENE 6), membranes
T3 sequence (P32214 25-479 isoform P32214-2 limits assumed): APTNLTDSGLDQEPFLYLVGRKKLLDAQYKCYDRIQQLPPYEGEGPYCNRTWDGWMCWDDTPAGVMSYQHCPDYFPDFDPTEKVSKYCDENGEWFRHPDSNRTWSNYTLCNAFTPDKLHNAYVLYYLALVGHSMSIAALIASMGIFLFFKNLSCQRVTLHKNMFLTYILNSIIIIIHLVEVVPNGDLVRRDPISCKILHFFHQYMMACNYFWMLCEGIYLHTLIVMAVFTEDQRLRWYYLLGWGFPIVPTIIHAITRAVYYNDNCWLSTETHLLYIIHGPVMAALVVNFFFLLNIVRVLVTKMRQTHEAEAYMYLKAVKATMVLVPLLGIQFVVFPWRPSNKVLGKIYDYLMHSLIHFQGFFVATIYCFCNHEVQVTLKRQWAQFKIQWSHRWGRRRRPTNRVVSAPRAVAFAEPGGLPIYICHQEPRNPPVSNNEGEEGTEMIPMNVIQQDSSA
T3 sequence (Q9JJ73 23-147 partner): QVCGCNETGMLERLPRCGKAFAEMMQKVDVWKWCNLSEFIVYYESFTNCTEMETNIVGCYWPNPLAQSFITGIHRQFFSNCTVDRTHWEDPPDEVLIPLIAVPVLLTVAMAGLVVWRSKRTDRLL
Protocol: Assay (VI)—Determination of the Binding to the Rat Amylin Receptor
The assay was performed as described above (Assay (V)—Determination of binding to the human amylin receptor) with the exception that we used membranes prepared from BHK tk'ts 13 cells that were transiently transfected with the rat calcitonin receptor rat RAMP 3 at an equimolar ratio […]. The BHK tk'ts 13 cells were transiently transfected with rat calcitonin receptor using FuGENE® 6 (Roche), according to the manufacturer's recommendations. Cells were grown in DMEM with 10% FBS and 1% Pen/Strep. Approximately 48 hours after transfection, the cells were harvested and membranes were prepared.

[3] = molecular target: T4, human amylin receptor (amylin 3(a) receptor: human calcitonin receptor + RAMP-3) (Homo sapiens, UniProt O60896+P30988); assay: Assay (II)a functional assay, human amylin receptor (CRE luciferase, BHK cells); type: cell-based; settings: for EC50: read-out: hAmylin-R funct. EC50
T4 construct: expressed in transfected cells
T4 sequence (P30988 25-474): T1 sequence (P30988 25-474)
T4 sequence (O60896 24-148 partner): T2 sequence (O60896 24-148 partner)

[4] = human amylin receptor membranes, SPA
[5] = Table 6, human functional selectivity (hCTR EC50 / hAmylin-R EC50)
[6] = functional assay, human amylin receptor
[7] = Table 6a, human functional selectivity (hCTR EC50 / hAmylin-R EC50), at least 5
[8] = Table 6j, hCTR funct. EC50 / hAmylin-R funct. EC50
[9] = Table 6k, hCTR funct. EC50 / hAmylin-R funct. EC50

SMILES | IC50 [1] [pM] | EC50 [2] [pM] | IC50 (human amylin receptor; binding to human amylin receptor) [pM] | IC50 (human amylin receptor; [4]) [pM] | Ratio hCT/hAmylin binding (human amylin receptor) | Ratio rCT/rAmylin binding (rat amylin receptor) | Ratio hCT/hAmylin funct. [3, 5] | EC50 [3, 6] [pM] | Ratio hCT/hAmylin funct. ([3]; hCTR funct. EC50 divided by hAmylin-R funct. EC50) | Ratio rCT/rAmylin binding (rat amylin receptor; Table 7b) | Ratio hCT/hAmylin funct. [3, 7] | Ratio hCT/hAmylin funct. [3, 8] | Ratio hCT/hAmylin funct. [3, 9] | Ratio hCT/hAmylin funct. ([3]; Table 6i, hCTR funct. EC50 / hAmylin-R funct. EC50) | EC50 ([3]; Table 6i, human amylin receptor functional) [pM]
CC(C)C[C@H](NC(=O)[C@H](CCCNC(=N)N)NC(=O)[C@H](CCC(N)=O)NC(=O)[C@@H](NC(=O)[C@H](C)NC(=O)[C@@H]1CSSC[C@H](NC(=O)[C@H](CCCCN)NC(=O)CC[C@H](NC(=O)CCCCCCCCCCCCCCCCCCC(=O)O)C(=O)O)C(=O)N[C@@H](CC(N)=O)C(=O)N[C@@H]([C@@H](C)O)C(=O)N[C@@H](C)C(=O)N[C@@H]([C@@H](C)O)C(=O)N1)[C@@H](C)O)C(=O)N[C@@H](C)C(=O)N[C@@H](CCC(=O)O)C(=O)N[C@@H](Cc1ccccc1)C(=O)N[C@@H](CC(C)C)C(=O)N[C@@H](CCCNC(=N)N)C(=O)N[C@@H](Cc1c[nH]cn1)C(=O)N[C@@H](CO)C(=O)N[C@@H](CO)C(=O)N1CCC[C@H]1C(=O)N[C@@H](CC(N)=O)C(=O)N[C@@H](Cc1ccccc1)C(=O)NCC(=O)N[C@@H](C)C(=O)N1CCC[C@H]1C(=O)N[C@@H](CC(C)C)C(=O)N[C@@H](CO)C(=O)N[C@@H](CO)C(=O)N[C@H](C(=O)N[C@@H](CC(N)=O)C(=O)N[C@H](C(=O)NCC(=O)N[C@@H](CO)C(=O)N[C@@H](CC(N)=O)C(=O)N[C@H](C(=O)N1CCC[C@H]1C(N)=O)[C@@H](C)O)C(C)C)[C@@H](C)O [Example 5] ({C20 diacid-γGlu}-KCNTATCATQRLAEFLRHSSPNFGAPLSSTNVGSNTP-NH2; disulfide 2-7) | 537 | 160 | 374 | 374 | 1.4 | 3.6 | 1.0 | 162 | 1.0 |  |  |  |  |  | 
CC[C@H](C)[C@H](NC(=O)[C@H](C)NC(=O)CNC(=O)[C@H](Cc1ccccc1)NC(=O)[C@H](CC(N)=O)NC(=O)[C@@H]1CCCN1C(=O)[C@H](CO)NC(=O)[C@H](CO)NC(=O)[C@H](Cc1c[nH]cn1)NC(=O)[C@H](CCCNC(=N)N)NC(=O)[C@H](CC(C)C)NC(=O)[C@H](Cc1ccccc1)NC(=O)[C@H](CCC(=O)O)NC(=O)[C@H](C)NC(=O)[C@H](CC(C)C)NC(=O)[C@H](CCCNC(=N)N)NC(=O)[C@H](CCC(N)=O)NC(=O)[C@@H](NC(=O)[C@H](C)NC(=O)[C@@H]1CSSC[C@H](NC(=O)[C@@H](N)CCCCNC(=O)CC[C@H](NC(=O)CCCCCCCCCCCCCCCCCCC(=O)O)C(=O)O)C(=O)N[C@@H](CC(N)=O)C(=O)N[C@@H]([C@@H](C)O)C(=O)N[C@@H](C)C(=O)N[C@@H]([C@@H](C)O)C(=O)N1)[C@@H](C)O)C(=O)N1CCC[C@H]1C(=O)N[C@@H](CO)C(=O)N[C@@H](CO)C(=O)N[C@H](C(=O)N[C@@H](CC(N)=O)C(=O)N[C@H](C(=O)NCC(=O)N[C@@H](CO)C(=O)N[C@@H](CC(N)=O)C(=O)N[C@H](C(=O)N1CCC[C@H]1C(N)=O)[C@@H](C)O)C(C)C)[C@@H](C)O [Example 12] (H-K([γGlu-C20 diacid])CNTATCATQRLAEFLRHSSPNFGAIPSSTNVGSNTP-NH2; disulfide 2-7) | 353 | 185 |  | 142 | 2.5 | 5.0 | 1.8 | 101 |  |  |  |  |  |  | 
CC[C@H](C)[C@H](NC(=O)[C@H](C)NC(=O)CNC(=O)[C@H](Cc1ccccc1)NC(=O)[C@H](CC(N)=O)NC(=O)[C@@H]1CCCN1C(=O)[C@H](CO)NC(=O)[C@H](CO)NC(=O)[C@H](Cc1c[nH]cn1)NC(=O)[C@H](CCCNC(=N)N)NC(=O)[C@H](CC(C)C)NC(=O)[C@H](Cc1ccccc1)NC(=O)[C@H](CC(N)=O)NC(=O)[C@H](C)NC(=O)[C@H](CC(C)C)NC(=O)[C@H](CCCNC(=N)N)NC(=O)[C@H](CCC(N)=O)NC(=O)[C@@H](NC(=O)[C@H](C)NC(=O)[C@@H]1CSSC[C@H](NC(=O)[C@H](CCCCN)NC(=O)CC[C@H](NC(=O)CCCCCCCCCCCCCCCCCCC(=O)O)C(=O)O)C(=O)N[C@@H](CC(N)=O)C(=O)N[C@@H]([C@@H](C)O)C(=O)N[C@@H](C)C(=O)N[C@@H]([C@@H](C)O)C(=O)N1)[C@@H](C)O)C(=O)N1CCC[C@H]1C(=O)N[C@@H](CO)C(=O)N[C@@H](CO)C(=O)N[C@H](C(=O)N[C@@H](CC(N)=O)C(=O)N[C@H](C(=O)NCC(=O)N1CCC[C@H]1C(=O)N[C@@H](CCC(=O)O)C(=O)N[C@H](C(=O)N[C@@H](Cc1ccc(O)cc1)C(N)=O)[C@@H](C)O)C(C)C)[C@@H](C)O [Example 29] ({C20 diacid-γGlu}-KCNTATCATQRLANFLRHSSPNFGAIPSSTNVGPETY-NH2; disulfide 2-7) | 8010 | 857 |  | 577 |  | 67.0 | 8.7 | 99 |  | 67.0 | 8.7 | 8.7 | 8.7 |  | 
CC[C@H](C)[C@H](NC(=O)[C@H](C)NC(=O)CNC(=O)[C@H](Cc1ccccc1)NC(=O)[C@H](CC(N)=O)NC(=O)[C@@H]1CCCN1C(=O)[C@H](CO)NC(=O)[C@H](CO)NC(=O)[C@H](Cc1c[nH]cn1)NC(=O)[C@H](CCCNC(=N)N)NC(=O)[C@H](CC(C)C)NC(=O)[C@H](Cc1ccccc1)NC(=O)[C@H](CCC(=O)O)NC(=O)[C@H](C)NC(=O)[C@H](CC(C)C)NC(=O)[C@H](CCCNC(=N)N)NC(=O)[C@H](CCC(N)=O)NC(=O)[C@@H](NC(=O)[C@H](C)NC(=O)[C@@H]1CSSC[C@H](NC(=O)[C@H](CCCCN)NC(=O)CC[C@H](NC(=O)CCCCCCCCCCCCCCCCCCC(=O)O)C(=O)O)C(=O)N[C@@H](CC(N)=O)C(=O)N[C@@H]([C@@H](C)O)C(=O)N[C@@H](C)C(=O)N[C@@H]([C@@H](C)O)C(=O)N1)[C@@H](C)O)C(=O)N1CCC[C@H]1C(=O)N[C@@H](CO)C(=O)N[C@@H](CO)C(=O)N[C@H](C(=O)N[C@@H](CC(N)=O)C(=O)N[C@H](C(=O)NCC(=O)N1CCC[C@H]1C(=O)N[C@@H](CC(N)=O)C(=O)N[C@H](C(=O)N[C@@H](Cc1ccc(O)cc1)C(N)=O)[C@@H](C)O)C(C)C)[C@@H](C)O [Example 32] ({C20 diacid-γGlu}-KCNTATCATQRLAEFLRHSSPNFGAIPSSTNVGPNTY-NH2; disulfide 2-7) | 1090 | 327 |  | 100 |  | 34.0 | 6.6 |  |  | 34.0 | 6.6 | 6.6 | 6.6 | 6.6 | 50
